US20020160986A1, “Compounds having activity as inhibitors of cytochrome P450RAI” (priority 2000, published 2002)

Key:
RARα [1] = biological target: T1, RARα (Homo sapiens, UniProt P10276); assay: chimeric receptor transactivation assay, RARα; format: cell-based; settings: value in parentheses
T1 sequence (P10276 183-417 limits assumed): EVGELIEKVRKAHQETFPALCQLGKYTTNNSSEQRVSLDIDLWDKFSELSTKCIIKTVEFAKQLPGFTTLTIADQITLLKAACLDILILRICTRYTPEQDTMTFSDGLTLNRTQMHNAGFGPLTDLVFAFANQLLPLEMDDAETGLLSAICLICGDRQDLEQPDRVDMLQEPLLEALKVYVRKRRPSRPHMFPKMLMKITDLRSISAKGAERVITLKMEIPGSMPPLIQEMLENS
Description: (§1) Assays described below measure the ability of a compound to bind to, and/or activate various retinoid receptor subtypes. When in these assays a compound binds to a given receptor subtype and activates the transcription of a reporter gene through that subtype, then the compound is considered an agonist of that receptor subtype. […] In the below described assays the ability of the compounds to bind to RAR60 , RAR62 , RARγ, RXR60 , RXR62 , and RXRγ receptors, and the ability or inability of the compounds to activate transcription of a reporter gene through these receptor subtypes can be tested.
(§2) As far as specific assays are concerned, a chimeric receptor transactivation assay which tests for agonist-like activity in the RAR60 , RARβ, and RARγ, receptor subtypes, and which is based on work published by Feigner P. L. and Holm M. (1989) Focus, 112 is described in detail in U.S. Pat. No. 5,455,265. The specification of U.S. Pat. No. 5,455,265 is hereby expressly incorporated by reference. The numeric results obtained with several preferred compounds of this invention in this assay are shown below in Table 1.
(§3) A holoreceptor transactivation assay and a ligand binding assay which measure the antagonist/agonist like activity of the compounds of the invention, or their ability to bind to the several retinoid receptor subtypes, respectively, are described in published PCT Application No. WO WO93/11755 (particularly on pages 30-33 and 37-41) published on Jun. 24, 1993, the specification of which is also incorporated herein by reference. A detailed experimental procedure for holoreceptor transactivations has been described by Heyman et al. Cell 68,397-406, (1992); Allegretto et al. J. Biol. Chem. 268,26625-26633, and Mangelsdorf et al. The Retinoids: Biology, Chemistry and Medicine, pp 319-349, Raven Press Ltd., New York, which are expressly incorporated herein by reference. The results obtained in this assay are expressed in EC50 numbers, as they are also in the chimeric receptor transactivation assay. The results of ligand binding assay are expressed in Kd numbers. (See Cheng et al. Biochemical Pharmacology Vol. 22 pp 3099-3108, expressly incorporated herein by reference.)

RARγ = biological target: T2, RARγ (Homo sapiens, UniProt P13631); assay: chimeric receptor transactivation assay, RARγ; format: cell-based; settings: value in parentheses
T2 sequence (P13631 185-419 limits assumed): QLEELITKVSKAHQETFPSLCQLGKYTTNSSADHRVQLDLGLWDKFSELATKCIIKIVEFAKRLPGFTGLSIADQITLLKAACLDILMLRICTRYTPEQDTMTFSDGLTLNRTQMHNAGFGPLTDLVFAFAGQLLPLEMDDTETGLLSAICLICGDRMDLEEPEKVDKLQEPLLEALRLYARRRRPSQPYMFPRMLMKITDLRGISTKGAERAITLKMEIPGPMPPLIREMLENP
Description: as §1, §2, §3

RARβ = biological target: T3, RARβ (Homo sapiens, UniProt P10826); assay: chimeric receptor transactivation assay, RARβ; format: cell-based; settings: value in parentheses
T3 sequence (P10826 183-417 limits assumed): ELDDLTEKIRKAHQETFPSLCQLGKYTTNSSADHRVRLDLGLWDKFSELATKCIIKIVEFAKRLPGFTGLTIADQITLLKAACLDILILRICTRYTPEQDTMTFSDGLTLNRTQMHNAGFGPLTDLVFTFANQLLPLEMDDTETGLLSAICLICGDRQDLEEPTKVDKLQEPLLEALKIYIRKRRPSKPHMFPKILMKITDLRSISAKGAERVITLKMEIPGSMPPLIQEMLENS
Description: as §1
As far as specific assays are concerned, a chimeric receptor transactivation assay which tests for agonist-like activity in the RAR60 , RARβ, and RARγ, receptor subtypes, and which is based on work published by Feigner P. L. and Holm M. (1989) Focus, 112 is described in detail in U.S. Pat. No. 5,455,265. The specification of U.S. Pat. No. 5,455,265 is hereby expressly incorporated by reference.
as §3, with “A detailed experimental procedure for holoreceptor transactivations has been described by Heyman et al. Cell 68,397-406, (1992); Allegretto et al. J. Biol. Chem. 268,26625-26633, and Mangelsdorf et al. The Retinoids: Biology, Chemistry and Medicine, pp 319-349, Raven Press Ltd., New York, which are expressly incorporated herein by reference.” left out

RARα [2] = biological target: T4, RARα (Homo sapiens, UniProt P10276); assay: ligand binding assay, RARα; settings: read-out: RAR α Kd
T4 sequence (P10276 1-462): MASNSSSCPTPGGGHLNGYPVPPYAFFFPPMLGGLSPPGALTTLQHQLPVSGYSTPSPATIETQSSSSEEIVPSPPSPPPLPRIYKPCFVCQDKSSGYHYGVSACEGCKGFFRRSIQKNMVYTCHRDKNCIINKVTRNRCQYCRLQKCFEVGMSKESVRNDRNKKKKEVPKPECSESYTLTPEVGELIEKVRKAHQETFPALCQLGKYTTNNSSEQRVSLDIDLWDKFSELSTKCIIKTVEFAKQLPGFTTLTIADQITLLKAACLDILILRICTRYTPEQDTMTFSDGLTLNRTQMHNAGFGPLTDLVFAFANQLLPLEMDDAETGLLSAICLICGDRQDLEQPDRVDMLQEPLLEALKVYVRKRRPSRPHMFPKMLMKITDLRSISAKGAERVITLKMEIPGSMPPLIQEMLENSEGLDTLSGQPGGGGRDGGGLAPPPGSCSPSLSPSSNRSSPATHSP
Description: as §1
as §3, with “The results obtained in this assay are expressed in EC50 numbers, as they are also in the chimeric receptor transactivation assay. The results of ligand binding assay are expressed in Kd numbers. (See Cheng et al. Biochemical Pharmacology Vol. 22 pp 3099-3108, expressly incorporated herein by reference.)” left out

Row | Compound | RAR α (EFFICACY) (RARα [1]) | RAR γ (EFFICACY) (RARγ) | RAR β (EFFICACY) (RARβ) | Kd (RARα [2])
1 | CN(C1CC1)C1CCC(C)(C)c2cc(C#Cc3ccc(C(=O)O)cc3)ccc21 (stereo not drawn) [Compound 3, 4-[(5-Cyclopropyl-methyl-amino)-8,8-dimethyl-5,6,7,8-tetrahydro-naphthalene-2yl-ethynyl]-benzoic acid] | (28) | (52) | (54) | –
2 | CC1(C)CCC(=O)c2ccc(C#Cc3ccc(CC(=O)O)cc3)cc21 [Compound 5, 4-[(8,8-Dimethyl-5-oxo-5,6,7,8-tetrahydro-naphthalene-2-yl-ethynyl)-phenyl]-acetic acid] | – | – | (36) | –
3 | CN(C1CC1)C1CCC(C)(C)c2cc(C#Cc3ccc(CC(=O)O)cc3)ccc21 (stereo not drawn) [Compound 8, 4-[(5-(Cyclopropyl-methyl-amino)-8,8-dimethyl-5,6,7,8-tetrahydro-naphthalene-2-yl-ethynyl)-phenyl]-acetic acid] | – | – | (96) | –
4 | CC1(C)CCC(=O)c2ccc(C#Cc3ccc(C(=O)O)c(F)c3)cc21 [Compound 10, 2-Fluoro-4-(818-dimethyl-5-oxo-5,6,7,8-tetrahydro-naphthalen-2yl-ethynyl)-benzoic acid] | (146) | (94) | (86) | –
5 | CN(C1CC1)C1CCC(C)(C)c2cc(C#Cc3ccc(C(=O)O)c(F)c3)ccc21 (stereo not drawn) [Compound 13, 4-[5-(Cyclopropyl-methyl-amino)-8,8-dimethyl-5,6,7.8-tetrahydro-naphthalene-2-yl-ethynyl]-2-fluoro benzoic acid] | – | (9) | (6.6) | –
6 | CC1(C)CC2(CC2)Oc2ccc(C#Cc3ccc(C(=O)O)cc3)cc21 [Compound 40, Benzoic acid, 4-[(3,4-dihydro-4,4-dimethylspiro[2H-1-benzopyran-2,1′-cyclopropane]-6-yl)ethynyl]-] | (207) | (140) | (126) | –
7 | CC1(C)CC2(CC2)Oc2ccc(C#Cc3ccc(C(=O)O)c(F)c3)cc21 [Compound 44, 2-Fluoro-benzoic acid, 4-[(3,4-dihydro-4,4-dimethylspiro[2H-1-benzopyran-2,1′-cyclopropane]-6-yl)ethynyl]-] | (138) | (116) | (100) | –
8 | CC1(C)CC(C)(C)c2cc(C(=O)Oc3ccc(CC(=O)O)cc3)ccc2O1 [Compound 46, 2,2,4,4-Tetramethyl-chroman-6-carboxylic acid 4-(carboxymethyl)phenyl ester] | – | – | – | > 10 µM
9 | COC1(c2ccc(C#Cc3ccc(C(=O)O)cc3)cc2)CC1 [Compound 69, 4-[4-(1-Methoxycyclopropyl)-phenylethynyl]-benzoic acid] | (10) | (31) | (50) | –
10 | CC(C)OC1(c2ccc(C#Cc3ccc(C(=O)O)cc3)cc2)CC1 [Compound 73, 4-[4-(1-Isopropoxycyclopropyl)-phenylethynyl]-benzoic acid] | – | (24) | (39) | –
11 | Cc1cc(C#Cc2ccc(C(=O)O)cc2)ccc1C1(OCc2ccccc2)CC1 [Compound 81, 4-[4-(1-Benzyloxycyclopropyl)-3-methyl-phenylethynyl]-benzoic acid] | – | (67) | (80) | –
12 | Cc1cc(C#Cc2ccc(C(=O)O)cc2)ccc1C1(OC(C)C)CC1 [Compound 85, 4-[4-(1-Isopropoxycyclopropyl)-3-methyl-phenylethynyl]-benzoic acid] | (60) | (65) | (77) | –
13 | Cc1cc(C#Cc2ccc(C(=O)O)cc2)ccc1C1(OCC(C)(C)C)CC1 [Compound 89, 4-[4-[1-(2,2-Dimethylpropyloxy)-cyclopropyl]-3-methyl-phenylethynyl]-benzoic acid] | (20) | (46) | (50) | –
14 | CCc1cc(C#Cc2ccc(C(=O)O)cc2)ccc1C1(OCc2ccccc2)CC1 [Compound 93, 4-[4-(1-Benzyloxycyclopropyl)-3-ethyl-phenylethynyl]-benzoic acid] | (114) | (55) | (39) | –
15 | CCCNC1(c2ccc(C#Cc3ccc(C(=O)O)cc3)cc2)CC1 [Compound 108, 4-[4-(1-Propylamino-cyclopropyl)-phenylethynyl]-benzoic acid] | (15) | (10) | (36) | –
16 | CCCN(CCC)C1(c2ccc(C#Cc3ccc(C(=O)O)cc3)cc2)CC1 [Compound 110, 4-[4-(1-Dipropylamino-cyclopropyl)-phenylethynyl]-benzoic acid] | – | (42) | (44) | –
17 | O=C(O)c1ccc(C#Cc2ccc(C3(NCc4ccccc4)CC3)cc2)cc1 [Compound 112, 4-[4-(1-Benzylamino-cyclopropyl)-phenylethynyl]-benzoic acid] | – | – | (37) | –
